Values after ≈ are worked out from the molar mass of the structure shown.
What was measured:
Format in all cases: functional
Vibrio ichthyoenteri = experiment: Antibacterial activity against Vibrio ichthyoenteri after 24 hrs by broth microdilution method
Staphylococcus aureus = experiment: Antibacterial activity against Staphylococcus aureus SG511 after 24 hrs by broth microdilution method; settings: SG511, 24 h
Streptococcus iniae = experiment: Antibacterial activity against Streptococcus iniae after 24 hrs by broth microdilution method

SMILES | MIC (Vibrio ichthyoenteri) [µg/mL] | MIC (Staphylococcus aureus) [µg/mL] | MIC (Streptococcus iniae) [µg/mL]
CN(C)[C@@H]1C(O)=C(C(N)=O)C(=O)[C@@]2(O)C(=O)C3=C(O)c4c(O)cccc4[C@@](C)(O)[C@H]3[C@H](O)[C@@H]12 | 0.16 (≈ 0.347 µM) |  | 2.5 (≈ 5.43 µM)
CN(C)[C@@H]1C(O)=C(C(N)=O)C(=O)[C@@]2(O)C(O)=C3C(=O)c4c(O)cccc4[C@@](C)(O)[C@H]3C[C@@H]12 [TETRACYCLINE] |  | 0.16 (≈ 0.36 µM) | 

Next, values leading:

MIC (Vibrio ichthyoenteri) [µg/mL] | MIC (Staphylococcus aureus) [µg/mL] | MIC (Streptococcus iniae) [µg/mL] | SMILES
> 40 | > 40 | > 40 | CCCCCCCCC(=O)c1cccc2c1C=C(CCCCCCC)[C@@]1(OCc3c(O)cccc31)O2
> 40 | > 40 | > 40 | CCCCCCCCC(=O)c1cccc2c1C=C(CCCCCCC)[C@]1(OCc3c(O)cccc31)O2
40 (≈ 81.5 µM) | > 40 | > 40 | CCCCCCCCC(=O)c1cccc2c1C=C(CCCCCCC)C1(OCc3c(O)cccc31)O2 (racemic)
